Measurements: PubChem BioAssay (NCI)
Where “and” joins values, the source holds several entries; their conditions need not be identical. Equal entries are not always repeated.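 Step 1: Grow cells in 96-well plates. Step 2: Expose to compound for 48 hours at 5 concentrations. Step 3: Interpolate endpoints linearly; if unreached, use highest concentration. GI50 is the concentration that inhibits growth by half. TGI marks complete inhibition of growth.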 Where a SMILES comes first, the peptide text is derived from it. The star is where a group is joined. Boc = CC(C)(C)OC(=O)*

Legend:
Test in all cases: NCI anticancer screen, dose series, 48 h
MDA-MB-231 breast = tested on: MDA-MB-231 breast
786-0 renal = tested on: 786-0 renal
SF-295 CNS = tested on: SF-295 CNS
OVCAR-5 ovarian = tested on: OVCAR-5 ovarian
HCT-116 colon = tested on: HCT-116 colon
HT29 colon = tested on: HT29 colon
OVCAR-8 ovarian = tested on: OVCAR-8 ovarian
A498 renal = tested on: A498 renal
HOP-92 NSCLC = tested on: HOP-92 NSCLC
PC-3 prostate = tested on: PC-3 prostate

CCOC(=O)c1c(-c2ccc(OC)cc2)c(C#N)c2c(C#N)c(N)nn2c1N
GI50 (MDA-MB-231 breast): 3.63 µM
TGI (MDA-MB-231 breast): 23.2 µM
GI50 (786-0 renal): 3.85 µM
TGI (786-0 renal): 23.3 µM
GI50 (SF-295 CNS): 2.98 µM
TGI (SF-295 CNS): 32.9 µM
GI50 (OVCAR-5 ovarian): 5.65 µM
TGI (OVCAR-5 ovarian): > 100 µM
GI50 (HCT-116 colon): 4.35 µM
TGI (HCT-116 colon): 19.4 µM
GI50 (HT29 colon): 3.98 µM
TGI (HT29 colon): > 100 µM
GI50 (OVCAR-8 ovarian): 4.27 µM
TGI (OVCAR-8 ovarian): > 100 µM
GI50 (A498 renal): 1.73 µM
TGI (A498 renal): 7.88 µM

C[N+](C)(C)CC1CCC/C1=N\OC(=O)c1ccccc1 (centres undefined)
TGI (786-0 renal): > 100 µM
TGI (SF-295 CNS): > 100 µM
TGI (HCT-116 colon): > 100 µM
TGI (HT29 colon): > 100 µM
TGI (OVCAR-8 ovarian): > 100 µM
TGI (A498 renal): > 100 µM

C[C@H]1CN[C@@H]2[C@@H](C)[C@H]3[C@@H](C[C@H]4[C@@H]5CC[C@H]6C[C@@H](N)CC[C@]6(C)[C@H]5CC[C@]34C)O[C@@]2(O)C1
TGI (MDA-MB-231 breast): 4.3 µM
TGI (786-0 renal): 3.66 µM
TGI (SF-295 CNS): 10.3 µM
TGI (OVCAR-5 ovarian): 19.6 µM
TGI (HCT-116 colon): 3.14 µM
TGI (HOP-92 NSCLC): 11.4 µM
TGI (HT29 colon): 3.9 µM
TGI (OVCAR-8 ovarian): 4.78 µM
TGI (PC-3 prostate): 13.9 µM
TGI (A498 renal): 1.44 µM

Cc1nc2cc(Nc3nc(Nc4ccc(F)cc4)nc(-c4cccs4)n3)ccc2n1Cc1ccccc1
GI50 (MDA-MB-231 breast): 3.48 µM
TGI (MDA-MB-231 breast): 16.2 µM
GI50 (786-0 renal): 3.07 µM
TGI (786-0 renal): 9.11 µM
GI50 (SF-295 CNS): 3.61 µM
TGI (SF-295 CNS): 16.7 µM
GI50 (OVCAR-5 ovarian): 9.62 µM
TGI (OVCAR-5 ovarian): 27.3 µM
GI50 (HCT-116 colon): 3.35 µM
TGI (HCT-116 colon): 13.3 µM
GI50 (HT29 colon): 2.12 µM
TGI (HT29 colon): 4.44 µM
GI50 (OVCAR-8 ovarian): 3.54 µM
TGI (OVCAR-8 ovarian): 19 µM
GI50 (PC-3 prostate): 2.71 µM
TGI (PC-3 prostate): 52.2 µM
GI50 (A498 renal): 5.41 µM
TGI (A498 renal): 73.3 µM

COc1cc(/C=C\c2cc(OC)c(OC)c(OC)c2)cc(N/C=C\C(=O)c2cc(OC)c(OC)c(OC)c2)c1OC
GI50 (MDA-MB-231 breast): 4.01 µM
TGI (MDA-MB-231 breast): > 100 µM
GI50 (786-0 renal): 3.76 µM
TGI (786-0 renal): > 100 µM
GI50 (SF-295 CNS): 2.4 µM
TGI (SF-295 CNS): > 100 µM
GI50 (OVCAR-5 ovarian): 3.64 µM
TGI (OVCAR-5 ovarian): > 100 µM
GI50 (HCT-116 colon): 2.78 µM
TGI (HCT-116 colon): > 100 µM
GI50 (HOP-92 NSCLC): 1.14 µM
TGI (HOP-92 NSCLC): 6.56 µM
GI50 (HT29 colon): 3.21 µM
TGI (HT29 colon): 14.8 µM
GI50 (OVCAR-8 ovarian): 4.7 µM
TGI (OVCAR-8 ovarian): > 100 µM
GI50 (PC-3 prostate): 2.89 µM
TGI (PC-3 prostate): > 100 µM
GI50 (A498 renal): 2.4 µM
TGI (A498 renal): 7.89 µM

CS/C(=C(\S)c1ccccc1)c1ccccc1
TGI (786-0 renal): > 100 µM
TGI (SF-295 CNS): > 100 µM
TGI (OVCAR-5 ovarian): > 100 µM
TGI (HCT-116 colon): > 100 µM
TGI (HOP-92 NSCLC): > 100 µM
TGI (HT29 colon): > 100 µM
TGI (OVCAR-8 ovarian): > 100 µM
TGI (A498 renal): > 100 µM

CC(=O)N1CCC(=O)/C(=C/c2ccccc2)C1
TGI (786-0 renal): 69.6 µM
TGI (SF-295 CNS): > 100 µM
TGI (OVCAR-5 ovarian): > 100 µM
TGI (HCT-116 colon): 32.2 µM
TGI (HOP-92 NSCLC): > 100 µM
TGI (HT29 colon): 38.8 µM
TGI (OVCAR-8 ovarian): 99.3 µM
TGI (A498 renal): > 100 µM

CC1(C)CC(=O)CC(=Nc2ccc([N+](=O)[O-])cc2)C1
TGI (786-0 renal): > 100 µM
TGI (SF-295 CNS): > 100 µM
TGI (OVCAR-5 ovarian): > 100 µM
TGI (HCT-116 colon): 40.9 µM
TGI (HT29 colon): > 100 µM
TGI (OVCAR-8 ovarian): > 100 µM
TGI (A498 renal): > 100 µM

C[C@]12CCC(=O)C=C1CC[C@@H]1C2CC[C@]2(C)Nc3[nH]ncc3CC12 (some centres undefined)
TGI (786-0 renal): > 100 µM
TGI (SF-295 CNS): > 100 µM
TGI (OVCAR-5 ovarian): > 100 µM
TGI (HCT-116 colon): > 100 µM
TGI (HT29 colon): > 100 µM
TGI (OVCAR-8 ovarian): > 100 µM
TGI (A498 renal): > 100 µM

O=C(CNS(=O)(=O)Cc1ccccc1)NNc1ccccc1
TGI (MDA-MB-231 breast): > 100 µM
TGI (786-0 renal): > 100 µM
TGI (SF-295 CNS): > 100 µM
TGI (OVCAR-5 ovarian): > 100 µM
TGI (HCT-116 colon): > 100 µM
TGI (HOP-92 NSCLC): > 100 µM
TGI (HT29 colon): > 100 µM
TGI (OVCAR-8 ovarian): > 100 µM
TGI (PC-3 prostate): > 100 µM

Nc1ccn(C2OC(CO)C(O)C2O)c(=O)n1 (centres undefined)
TGI (MDA-MB-231 breast): > 500 µM
GI50 (786-0 renal): 0.396 µM
TGI (786-0 renal): > 100 µM and 388 µM and > 500 µM
GI50 (SF-295 CNS): 0.661 µM
TGI (SF-295 CNS): > 100 µM and 417 µM and > 500 µM
TGI (OVCAR-5 ovarian): > 100 µM and 392 µM and > 500 µM
GI50 (HCT-116 colon): 0.142 µM
TGI (HCT-116 colon): > 500 µM
GI50 (HT29 colon): 2.01 µM
TGI (HT29 colon): > 500 µM
GI50 (OVCAR-8 ovarian): 0.392 µM
TGI (OVCAR-8 ovarian): > 500 µM
GI50 (PC-3 prostate): > 46.3 µM
TGI (PC-3 prostate): > 500 µM
GI50 (A498 renal): 12 µM and 4.38 µM and 20.8 µM
TGI (A498 renal): > 100 µM and 424 µM

COC(=O)C1=C(C(=O)OC)C2=S(SC3=C2CCCC3)S1 (centres undefined)
TGI (786-0 renal): 15.2 µM
TGI (SF-295 CNS): > 100 µM
TGI (OVCAR-5 ovarian): 93.6 µM
TGI (HOP-92 NSCLC): 40.3 µM
TGI (HT29 colon): 87.8 µM
TGI (OVCAR-8 ovarian): 39.8 µM

Clc1nc(Cl)nc(Nc2cccc3ccccc23)n1
GI50 (MDA-MB-231 breast): 63.9 µM
TGI (MDA-MB-231 breast): > 100 µM
GI50 (786-0 renal): > 100 µM
TGI (786-0 renal): > 100 µM
GI50 (SF-295 CNS): 64 µM
TGI (SF-295 CNS): > 100 µM
GI50 (OVCAR-5 ovarian): > 100 µM
TGI (OVCAR-5 ovarian): > 100 µM
GI50 (HCT-116 colon): 47.1 µM
TGI (HCT-116 colon): > 100 µM
GI50 (HT29 colon): > 100 µM
TGI (HT29 colon): > 100 µM
GI50 (OVCAR-8 ovarian): > 100 µM
TGI (OVCAR-8 ovarian): > 100 µM
GI50 (PC-3 prostate): 84.2 µM
TGI (PC-3 prostate): > 100 µM
GI50 (A498 renal): > 100 µM
TGI (A498 renal): > 100 µM

CN(C)CCC(=O)C(=Cc1ccc(O)cc1)C(=O)CCN(C)C
GI50 (MDA-MB-231 breast): > 100 µM
TGI (MDA-MB-231 breast): > 100 µM
GI50 (786-0 renal): > 100 µM
TGI (786-0 renal): > 100 µM
GI50 (SF-295 CNS): > 100 µM
TGI (SF-295 CNS): > 100 µM
GI50 (OVCAR-5 ovarian): > 100 µM
TGI (OVCAR-5 ovarian): > 100 µM
GI50 (HCT-116 colon): 44.8 µM
TGI (HCT-116 colon): > 100 µM
GI50 (HOP-92 NSCLC): 95.6 µM
TGI (HOP-92 NSCLC): > 100 µM
GI50 (HT29 colon): 34.4 µM
TGI (HT29 colon): > 100 µM
GI50 (OVCAR-8 ovarian): > 100 µM
TGI (OVCAR-8 ovarian): > 100 µM

CCN(CC)CCSc1c2ccccc2nc2c(OC)ccc(OC)c12
TGI (786-0 renal): > 20.6 µM
TGI (SF-295 CNS): 59.4 µM
TGI (OVCAR-5 ovarian): 48.2 µM
TGI (HCT-116 colon): 17.7 µM
TGI (HOP-92 NSCLC): 7.57 µM
TGI (HT29 colon): 23.1 µM
TGI (OVCAR-8 ovarian): 12 µM
TGI (A498 renal): 32.5 µM

COC(=O)C(C)NC(=O)C(CCSC)NC(=O)C(Cc1ccccc1)NC(=O)OC(C)(C)C (stereo not drawn) (Boc-Phe-Met-Ala-OMe; configuration not given here)
GI50 (MDA-MB-231 breast): 33.2 µg/mL
TGI (MDA-MB-231 breast): > 100 µM
GI50 (786-0 renal): 43.3 µg/mL
TGI (786-0 renal): > 100 µM
TGI (SF-295 CNS): > 100 µM
GI50 (OVCAR-5 ovarian): 31.6 µg/mL
TGI (OVCAR-5 ovarian): > 100 µM
GI50 (HCT-116 colon): 17.1 µg/mL
TGI (HOP-92 NSCLC): > 100 µM
TGI (HT29 colon): > 100 µM
TGI (OVCAR-8 ovarian): > 100 µM
TGI (PC-3 prostate): > 100 µM

Cn1cc(-c2csc(-c3c[nH]c4ccc(Br)cc34)n2)c2cnccc21
GI50 (MDA-MB-231 breast): 2.34 µM
TGI (MDA-MB-231 breast): 5.55 µM
GI50 (786-0 renal): 1.63 µM
TGI (786-0 renal): 3.4 µM
GI50 (HCT-116 colon): 1.56 µM
TGI (HCT-116 colon): 3.11 µM
GI50 (HOP-92 NSCLC): 2.98 µM
TGI (HOP-92 NSCLC): 8.37 µM
GI50 (PC-3 prostate): 2.02 µM
TGI (PC-3 prostate): 4.15 µM
GI50 (A498 renal): 12.6 µM
TGI (A498 renal): > 100 µM

CN(C)CCNC(=O)c1cccc2c(Nc3ccc(S(=O)(=O)N=C(N)N)cc3)c3ccccc3nc12
TGI (786-0 renal): 60 µM
TGI (SF-295 CNS): 75.2 µM
TGI (OVCAR-5 ovarian): 90.4 µM
TGI (HCT-116 colon): > 100 µM
TGI (HT29 colon): > 100 µM
TGI (OVCAR-8 ovarian): 69.1 µM

Cn1c2ccccc2c2ncc3[nH]c4ccccc4c3c21
TGI (786-0 renal): > 100 µM
TGI (SF-295 CNS): 47.9 µM
TGI (OVCAR-5 ovarian): 47.8 µM
TGI (HCT-116 colon): 26 µM
TGI (HOP-92 NSCLC): 56.8 µM
TGI (HT29 colon): 31.1 µM
TGI (OVCAR-8 ovarian): 52.7 µM
TGI (A498 renal): 36.7 µM

CCOC(=O)C1SC(=Nc2ccccc2)N=C1C (centres undefined)
TGI (786-0 renal): > 100 µM
TGI (SF-295 CNS): > 100 µM
TGI (OVCAR-5 ovarian): > 100 µM
TGI (HCT-116 colon): > 100 µM
TGI (HOP-92 NSCLC): 88.8 µM
TGI (HT29 colon): > 100 µM
TGI (OVCAR-8 ovarian): > 100 µM
TGI (A498 renal): > 100 µM
